The term solubility denotes how much of the substance goes into solution per volume. A low value points to a poorly soluble substance.

Consider four compounds from patent US10787454B2, “Imidazo[1,5-a]pyrimidinyl carboxamide compounds and their use in the treatment of medical disorders” (BIAL-BioTech Investments, Inc., priority 2016, dated 2020).

≈ marks a conversion by molar mass, not a printed value. Bounds are passed on as bounds.

Series [1] has as its target T1, glucocerebrosidase (Gcase) (Homo sapiens, UniProt P04062).
T1 sequence (P04062 40-536): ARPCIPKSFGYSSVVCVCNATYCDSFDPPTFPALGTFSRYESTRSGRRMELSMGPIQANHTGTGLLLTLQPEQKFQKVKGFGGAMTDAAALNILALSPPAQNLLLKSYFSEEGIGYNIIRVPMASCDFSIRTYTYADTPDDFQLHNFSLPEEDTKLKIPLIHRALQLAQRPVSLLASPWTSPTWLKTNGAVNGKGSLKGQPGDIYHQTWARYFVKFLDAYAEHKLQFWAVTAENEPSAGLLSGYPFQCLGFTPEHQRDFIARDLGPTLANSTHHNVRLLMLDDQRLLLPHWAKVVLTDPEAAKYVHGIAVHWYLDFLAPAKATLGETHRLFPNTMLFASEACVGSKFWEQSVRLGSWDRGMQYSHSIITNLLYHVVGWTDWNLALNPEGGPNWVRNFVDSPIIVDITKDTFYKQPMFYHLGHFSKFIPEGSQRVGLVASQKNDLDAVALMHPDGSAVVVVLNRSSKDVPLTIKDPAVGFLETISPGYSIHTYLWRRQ
As to the kind of experiment: Glucocerebrosidase (Gcase) activation assay, 4-methylumbelliferyl-beta-D-glucopyranoside substrate, with saposin C. The series is classed as biochemical. Conditions: for activation at 0.1 µM: read-out: Percent Gcase Activation, 0.1 μM Test Compound; for activation at 1 µM / Percent Gcase Activation, 1 μM Test Compound: test compound at 1.0 μM; for activation at 1 µM: read-out: Percent Gcase Activation, 1 μM Test Compound. Here is the method:
The ability of exemplary compounds to activate glucocerebrosidase (Gcase) was measured.
A 484 μL aliquot of a 1.0 mg/mL solution of phosphatidylserine (PS) (Sigma P7769) in chloroform was evaporated under a stream of nitrogen for 1 hour. The lipid film was dissolved over 4 minutes of vigorous vortexing in 40 mL of 176 mM K2HPO4/50 mM citric acid (pH 4.7) containing 7.5 μL of triton X-100, resulting in a mixed micellar preparation with a composition of 0.32 mM triton and 0.37 mol % PS. 4-Methylumbelliferyl-beta-D-glucopyranoside (ACROS-337025000) was dissolved in the micellar solution to a final concentration of 2 mM for use as the reaction substrate.
Test compounds were diluted to the desired concentrations with dimethylsulfoxide (DMSO) from 10 mM stocks, and 0.41 μL of the DMSO compound mixture was added to 100 μL of micellar solution containing 10 nM GCase and 100 nM saposin C (Enzo ALX-201-262-C050). Pre-incubation was allowed to occur for 30 minutes at room temperature, after which the reaction was initiated by combining 25 μL of substrate solution with 25 μL of compound/GCase/saposin mixture. The reaction proceeded for 15 minutes at room temperature and was stopped by adding 150 μL of 1M glycine, pH 12.5. The endpoint of the reaction was monitored by measuring fluorescence intensity (excitation: 365 nm; emission: 440 nm) on a SpectraMax i3 instrument (Molecular Devices). Test compounds were screened at 1.0 and 0.1 μM final concentration, and subsequent 8-point dose response curves were obtained using 3-fold dilutions from a maximum final concentration of 5 μM.

A short description of series [2]: Compound solubility in water. The series is classed as physicochemical.

Turning to `Cc1cc(N)nc2c(C(=O)NC(c3ccc(F)cc3)C(F)(F)F)ncn12` (stereo not shown) [III-17], the activation at 0.1 µM in series [1] (test compound at 0.1 μM) was more than 20%. The activation at 1 µM in series [1] was more than 60%. The amount in solution in series [2] (solubility) came to 0.9 µg/mL (≈ 2.45 µM).

With `Cc1cc(Oc2ccc(F)cc2)nc2c(C(=O)N[C@@H](C)C3CC3)ncn12` [III-77], the activation at 0.1 µM in series [1] (test compound at 0.1 μM) is less than 10%. For the same compound, the activation at 1 µM in series [1] is 30 to 60%. This compound also showed a solubility in series [2] of 10.6 µg/mL (≈ 29.9 µM).

As to `Cc1cc(C)n2cnc(C(=O)NC(C)C3CCCCC3)c2n1` (stereo not shown) [III-9], the “Percent Gcase Activation, 1 μM Test Compound” value in series [1] is reported as “+++ (Gcase activation greater than 60%)”.

In the case of `Cc1cc(C)n2cnc(C(=O)NC(C)C3CCCCC3)c2n1` (stereo not shown) [III-10], the “Percent Gcase Activation, 0.1 μM Test Compound” value in series [1] (test compound at 0.1 μM) is “** (Gcase activation in the range of 10% up to 20%)”. For the same compound, the “Percent Gcase Activation, 1 μM Test Compound” value in series [1] is reported as “+++ (Gcase activation greater than 60%)”. Besides, the “Compound Solubility in Water” value in series [2] amounted to 23.0 µg/mL.
